Laboratory results taken from patent US4684647A, “Anti-bacterial pyrido-benzothiazine derivative and pharmaceutical composition therefor” (priority 1984, dated 1987).
≈ marks a conversion by molar mass, not a printed value.

What was measured:
Enterobacter = experiment: MIC in agar, Enterobacter; type: cell-based; conditions: Isosensitest agar, 10^4 CFU, 24 h, 37° C., read-out: MIC, F = Enterobacter
Method: (§1) The antibacterial activity (minimum inhibiting concentration, MIC) of the compounds according to the invention has been determined in agar, by adding the compound under evaluation at concentrations of from 0.1 to 100 meg/ml by means of a "multipoint inoculator" (Denley Techn. Ltd., England); the medium used was Isosensitest agar (Oxoid); the bacterial inoculate was 10^4 colony forming unity (CFU) per inoculation point. The reading of the results was done after 24 hour-incubation in thermostat at 37° C.
(§2) The MIC was defined as the lowest concentration of chemotherapeutic agent still capable of totally inhibiting the growth of bacteria, as detected from a lack of colony development in the inoculation point.
(§3) The microorganisms used for evaluating the activity of the specific compounds have been: Escherichia coli, Klebsiella P., Enterobacter, Serratia, Citrobacter, Proteus (+), Salmonella, Pseudomonas, Staphylococcus. All the compounds according to the present invention are provided with antibacterial activity against one or more microorganism(s) among those above mentioned. Some of such compounds are absorbed after having been administered orally to the animals, and are particularly useful as disinfectants of the urinary tract in that they are excreted in a high percentage (50-70% over 24 hours after the administration of 50 mg/kg per os) as such, and in metabolic active form, through the urine.

Klebsiella pneumoniae = experiment: MIC in agar, Klebsiella pneumoniae; type: cell-based; conditions: Isosensitest agar, 10^4 CFU, 24 h, 37° C., read-out: MIC, E = Klebsiella pneumoniae
Method: as §1, §2, §3
E = Klebsiella pneumoniae

bacteria = experiment: antibacterial activity in vitro, overall; type: cell-based; conditions: for anti-bacterial activity in vitro: Table 1; for activity with chlorine instead of fluorine in the X-position: comparison with (a), (c), (p)
Method: as §1, §2, §3

Staphylococcus aureus = experiment: MIC in agar, Staphylococcus aureus; type: cell-based; conditions: Isosensitest agar, 10^4 CFU, 24 h, 37° C.
Method: as §1, §2, §3

Pseudomonas aeruginosa = experiment: MIC in agar, Pseudomonas aeruginosa; type: cell-based; conditions: Isosensitest agar, 10^4 CFU, 24 h, 37° C., read-out: MIC, B = Pseudomonas aeruginosa
Method: as §1, §2, §3
B = P udomonas aeruginosa

[1] = tested on: Proteus Morgani (indole +); experiment: MIC in agar, Proteus Morgani (indole +); type: cell-based; conditions: Isosensitest agar, 10^4 CFU, 24 h, 37° C.; read-out: MIC, D = Proteus Morgani (indole +)
Method: as §1, §2, §3
D = Proteus Morgani (indole +)

Escherichia coli (981) = experiment: MIC in agar, Escherichia coli (981); type: cell-based; conditions: Isosensitest agar, 10^4 CFU, 24 h, 37° C.
Method: as §1, §2, §3
A = Escherichia coli (981)

Citrobacter = experiment: MIC in agar, Citrobacter; type: cell-based; conditions: Isosensitest agar, 10^4 CFU, 24 h, 37° C., read-out: MIC, G = Citrobacter
Method: as §1, §2, §3

in vivo = conditions: rat, po
Method: In Table 4 the percentage of urinary excretion of compound (h) is reported, as measured in the 24 hours successive to oral administration of the same to rats.
Each value is the average of three tested rats.
The tests have been performed in comparison with Ofloxacin, a well known antibacterial compound. The amount of excreted product has been determined with microbiological analysis, by using Klebsiella Pneumoniae as the testing microorganism.

[2] = pharmacokinetic test, absorption; type: in vivo

| SMILES | MIC (Enterobacter) | MIC (Klebsiella pneumoniae) | anti-bacterial activity in vitro (bacteria) | MIC (Staphylococcus aureus) | MIC (Pseudomonas aeruginosa) | MIC [1] | MIC (Escherichia coli (981)) | MIC (Citrobacter) | activity with chlorine instead of fluorine in the X-position (bacteria) | dose excreted at 24 h (in vivo; 20 mg/kg) | dose excreted at 24 h (in vivo; 50 mg/kg) | absorption [2] |
| --- | --- | --- | --- | --- | --- | --- | --- | --- | --- | --- | --- | --- |
| O=C(O)c1cn2c3c(c(N4CCN(C(=O)C(F)(F)F)CC4)c(F)cc3c1=O)SCC2 [(l)] | < 0.39 µg/mL | < 0.39 µg/mL | very good and comparable anti-bacterial activity | 1.56 µg/mL (≈ 3.5 µM) | 12.5 µg/mL (≈ 28.1 µM) | 1.56 µg/mL (≈ 3.5 µM) | < 0.39 µg/mL | 0.39 µg/mL (≈ 0.876 µM) | – | – | – | – |
| O=C(O)c1cn2c3c(c(N4CCCC4)c(F)cc3c1=O)S(=O)(=O)CC2 [(f), 9-fluoro-10-(1-pyrrolidinyl)-7-oxo-2,3-dihydro-7H-pyrido[1,2,3 de][1,4]benzothiazine-1,1-dioxido-6-carboxylic acid] | 25 µg/mL (≈ 68.2 µM) | 25 µg/mL (≈ 68.2 µM) | – | 3.12 µg/mL (≈ 8.52 µM) | > 50 µg/mL | > 50 µg/mL | 3.12 µg/mL (≈ 8.52 µM) | 25 µg/mL (≈ 68.2 µM) | – | – | – | – |
| O=C(O)c1cn2c3c(c(N4CCCC4)c(F)cc3c1=O)SCC2 [(c)] | 1.56 µg/mL (≈ 4.67 µM) | 1.56 µg/mL (≈ 4.67 µM) | very good and comparable anti-bacterial activity | < 0.39 µg/mL | 3.12 µg/mL (≈ 9.33 µM) | 3.12 µg/mL (≈ 9.33 µM) | 1.56 µg/mL (≈ 4.67 µM) | 25 µg/mL (≈ 74.8 µM) | – | – | – | – |
| CC1CSc2c(Cl)c(F)cc3c(=O)c(C(=O)O)cn1c23 (centres unmarked) [(n), 9-fluoro-10-chloro-3-methyl-7-oxo-2,3-dihydro-7H-pyrido[1,2,3 de][1,4]benzothiazine-6-carboxylic acid] | 0.39 µg/mL (≈ 1.24 µM) | 0.78 µg/mL (≈ 2.49 µM) | very good and comparable anti-bacterial activity | 0.39 µg/mL (≈ 1.24 µM) | 25 µg/mL (≈ 79.7 µM) | – | 0.39 µg/mL (≈ 1.24 µM) | – | – | – | – | – |
| O=C(O)c1cn2c3c(c(Cl)c(Cl)cc3c1=O)SCC2 [Comparison (b), reference compound] | > 50 µg/mL | 12.5 µg/mL (≈ 39.5 µM) | – | 0.78 µg/mL (≈ 2.47 µM) | > 50 µg/mL | 6.25 µg/mL (≈ 19.8 µM) | > 50 µg/mL | > 50 µg/mL | strongly reduced | – | – | – |
| CC1CSc2c(N3CCNCC3)c(F)cc3c(=O)c(C(=O)O)cn1c23 (centres unmarked) [(r)] | < 0.39 µg/mL | < 0.39 µg/mL | very good and comparable anti-bacterial activity | 0.78 µg/mL (≈ 2.15 µM) | 12.5 µg/mL (≈ 34.4 µM) | – | 0.78 µg/mL (≈ 2.15 µM) | – | – | – | – | – |
| O=C(O)c1cn2c3c(c(N4CCCC4)c(F)cc3c1=O)[S+]([O-])CC2 (centres unmarked) [(e)] | 50 µg/mL (≈ 143 µM) | 25 µg/mL (≈ 71.4 µM) | – | 12.5 µg/mL (≈ 35.7 µM) | > 50 µg/mL | > 50 µg/mL | 12.5 µg/mL (≈ 35.7 µM) | 50 µg/mL (≈ 143 µM) | – | – | – | – |
| CC1COc2c(N3CCN(C)CC3)c(F)cc3c(=O)c(C(=O)O)cn1c23 (centres unmarked) [Ofloxacin, reference compound] | – | – | – | – | – | – | – | – | – | 61 ± 4.58% | 54.5 ± 5.29% | – |
| CC1CSc2c(N3CCN(C)CC3)c(Cl)cc3c(=O)c(C(=O)O)cn1c23 (centres unmarked) [Comparison (q), reference compound] | > 50 µg/mL | 12.5 µg/mL (≈ 31.7 µM) | – | 3.12 µg/mL (≈ 7.92 µM) | > 12.5 µg/mL | – | > 50 µg/mL | – | strongly reduced | – | – | – |
| CC1CSc2c(F)c(F)cc3c(=O)c(C(=O)O)cn1c23 (centres unmarked) [(o), 9,10-difluoro-3-methyl-7-oxo-2,3-dihydro-7H-pyrido[1,2,3 de][1,4]benzothiazine-6-carboxylic acid] | – | – | very good and comparable anti-bacterial activity | – | – | – | – | – | – | – | – | – |
| O=C(O)c1cn2c3c(c(N4CCNCC4)c(F)cc3c1=O)SCC2 [(g)] | < 0.39 µg/mL | < 0.39 µg/mL | very good and comparable anti-bacterial activity | 0.78 µg/mL (≈ 2.23 µM) | 12.5 µg/mL (≈ 35.8 µM) | 1.56 µg/mL (≈ 4.46 µM) | 0.39 µg/mL (≈ 1.12 µM) | 0.78 µg/mL (≈ 2.23 µM) | – | – | – | – |
| CC1CSc2c(N3CCN(C)CC3)c(F)cc3c(=O)c(C(=O)O)cn1c23 (centres unmarked) [(p)] | < 0.39 µg/mL | < 0.39 µg/mL | very good and comparable anti-bacterial activity | 0.78 µg/mL (≈ 2.07 µM) | 50 µg/mL (≈ 132 µM) | – | 0.78 µg/mL (≈ 2.07 µM) | – | – | – | – | – |
| CC1CN(c2c(F)cc3c(=O)c(C(=O)O)cn4c3c2SCC4)CC(C)N1 (centres unmarked) [(m)] | 3.12 µg/mL (≈ 8.27 µM) | 6.25 µg/mL (≈ 16.6 µM) | – | 3.12 µg/mL (≈ 8.27 µM) | 100 µg/mL (≈ 265 µM) | 25 µg/mL (≈ 66.2 µM) | 6.25 µg/mL (≈ 16.6 µM) | 12.5 µg/mL (≈ 33.1 µM) | – | – | – | – |
| O=C(O)c1cn2c3c(c(N4CCN(CC(F)(F)F)CC4)c(F)cc3c1=O)SCC2 [(i)] | > 50 µg/mL | > 50 µg/mL | – | 0.39 µg/mL (≈ 0.904 µM) | > 50 µg/mL | > 50 µg/mL | > 50 µg/mL | 12.5 µg/mL (≈ 29 µM) | – | – | – | – |
| O=C(O)c1cn2c3c(c(Cl)c(F)cc3c1=O)SCC2 [(a), 9-fluoro-10-chloro-7-oxo-2,3-dihydro-7H-pyrido[1,2,3de][1,4]benzothiazine-6-carboxylic acid] | 0.39 µg/mL (≈ 1.3 µM) | 0.78 µg/mL (≈ 2.6 µM) | very good and comparable anti-bacterial activity | 0.39 µg/mL (≈ 1.3 µM) | > 25 µg/mL | 1.56 µg/mL (≈ 5.21 µM) | 0.39 µg/mL (≈ 1.3 µM) | 0.78 µg/mL (≈ 2.6 µM) | – | – | – | not at all absorbed |
| O=C(O)c1cn2c3c(c(N4CCCC4)c(Cl)cc3c1=O)SCC2 [Comparison (d), reference compound] | > 50 µg/mL | 12.5 µg/mL (≈ 35.6 µM) | – | 0.78 µg/mL (≈ 2.22 µM) | > 50 µg/mL | 3.12 µg/mL (≈ 8.89 µM) | > 50 µg/mL | > 50 µg/mL | strongly reduced | – | – | – |
